Data as given in ChEMBL document CHEMBL1201862, “PubChem BioAssay data set” (2004).
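Where inhibition never reached the appropriate level, the endpoint shown equals the highest concentration tested. Otherwise, values were interpolated linearly from a five-concentration, 48-hour dose response in 96-well plates. At the GI50, growth is halved.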 Calls of active or inactive are those of the source. No stated cut-off is given here; in the data, active = GI50 up to about 1.1 µM and inactive = higher.

Experiments:
Experiment in all cases: NCI anticancer screen, dose series, 48 h
[1] = test system: EKVX
[2] = test system: M19-MEL
[3] = test system: SK-MEL-5
[4] = test system: DMS-114
[5] = test system: COLO 205
[6] = test system: SF-268
[7] = test system: KM-20L2
[8] = test system: M14
[9] = test system: SNB-19
[10] = test system: CCRF-CEM
[11] = test system: HOP-18
[12] = test system: NCI-H522
[13] = test system: HOP-62
[14] = test system: HOP-92
[15] = test system: NCI-H460
[16] = test system: OVCAR-4
[17] = test system: NCI-H23
[18] = test system: MCF7

SMILES	GI50 [1]	GI50 [2]	GI50 [3]	GI50 [4]	GI50 [5]	GI50 [6]	GI50 [7]	GI50 [8]	GI50 [9]	GI50 [10]	GI50 [11]	GI50 [12]	GI50 [13]	GI50 [14]	GI50 [15]	GI50 [16]	GI50 [17]	GI50 [18]
N#CNCC(COCc1ccccc1)c1ccccc1 (stereo unspecified)	> 100 µM (inactive)	> 100 µM (inactive)	49.2 µM (inactive)	53.2 µM (inactive)	> 100 µM (inactive)	> 100 µM (inactive)	> 100 µM (inactive)	> 100 µM (inactive)	> 100 µM (inactive)	> 100 µM (inactive)	> 100 µM (inactive)	> 100 µM (inactive)	> 100 µM (inactive)	> 100 µM (inactive)	> 100 µM (inactive)	> 100 µM (inactive)	> 100 µM (inactive)	
CCS(=O)(=O)Nc1ccc(Nc2c3ccccc3nc3ccccc23)c(OC)c1		1.64 µM (inactive)	0.796 µM (active)	0.216 µM (active)	2.22 µM (inactive)	0.421 µM (active)	1.43 µM (inactive)		0.273 µM (active)	0.0485 µM (active)	0.809 µM (active)	1.2 µM (inactive)	0.067 µM (active)	0.697 µM (active)	< 0.0114 µM (active)	4.19 µM (inactive)	0.203 µM (active)	0.0984 µM (active)
Cc1nc2c(=O)n(C)c(=O)nc-2n(-c2ccc(Cl)cc2)c1C	> 100 µM (inactive)	> 100 µM (inactive)	79.1 µM (inactive)	> 100 µM (inactive)	> 100 µM (inactive)	> 100 µM (inactive)	46.7 µM (inactive)	82.6 µM (inactive)	> 100 µM (inactive)	60.1 µM (inactive)	> 100 µM (inactive)	> 100 µM (inactive)	> 100 µM (inactive)	> 100 µM (inactive)	> 100 µM (inactive)	31 µM (inactive)	> 100 µM (inactive)	
Cc1cc(/N=N/c2ccc(/N=N/c3c(O)c(S(=O)(=O)O)cc4cc(S(=O)(=O)O)ccc34)cc2C)ccc1/N=N/c1ccc2cc(S(=O)(=O)O)cc(S(=O)(=O)O)c2c1	> 100 µM (inactive)	> 100 µM (inactive)	> 100 µM (inactive)	> 100 µM (inactive)	> 100 µM (inactive)	> 100 µM (inactive)	54.8 µM (inactive)		> 100 µM (inactive)	> 100 µM (inactive)	> 100 µM (inactive)	> 100 µM (inactive)	> 100 µM (inactive)	> 68.5 µM (inactive)	> 100 µM (inactive)	> 100 µM (inactive)	> 100 µM (inactive)	> 100 µM (inactive)
CC1=NN2C(c3ccc([N+](=O)[O-])cc3)=CSC2=NC(C)(C)C1	> 100 µM (inactive)	> 100 µM (inactive)	> 100 µM (inactive)	67.8 µM (inactive)	> 100 µM (inactive)	> 100 µM (inactive)	> 100 µM (inactive)	> 100 µM (inactive)	> 100 µM (inactive)	> 100 µM (inactive)	> 100 µM (inactive)	> 100 µM (inactive)	> 100 µM (inactive)	79.6 µM (inactive)	> 100 µM (inactive)	> 100 µM (inactive)	> 100 µM (inactive)	
CCC1=C(C)/C(=C/c2[nH]c(CBr)c(CC)c2C)N=C1CBr	21.7 µM (inactive)	13.7 µM (inactive)	16.8 µM (inactive)	7.21 µM (inactive)	11.3 µM (inactive)	13.7 µM (inactive)	11.4 µM (inactive)	16.5 µM (inactive)	16.4 µM (inactive)	2.51 µM (inactive)	11 µM (inactive)	2.81 µM (inactive)	15 µM (inactive)	7.46 µM (inactive)	19 µM (inactive)	13 µM (inactive)	14.6 µM (inactive)	
